Experimental findings from ChEMBL document CHEMBL1201862, “PubChem BioAssay data set” (2004) are described below.

Calls of active or inactive are those of the source.

The target in assay [1] is Fructose-bisphosphate aldolase (Mycobacterium tuberculosis, UniProt P9WQA3). In words: Fluorescence-based biochemical high throughput dose response assay for inhibitors of the fructose-bisphosphate aldolase (FBA) of M. tuberculosis. Type of assay: functional.
Assay [2] is described as follows: cytotoxicity toward NIH3T3 fibroblasts, dose response, counter-screen, cell-based, ATP luminescence, mouse fibroblasts (AID 2010).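 Further: cells exposed to compound for about 90 hours before reading.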 Conditions: NIH3T3. Type of assay: functional.
Assay [3] is described as follows: inhibitors of intracellular T. cruzi replication, confirmation, NIH3T3 host cells, beta-gal luminescence (AID 2044).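 Further: intracellular parasites grown in NIH/3T3 mouse fibroblasts as host cells; luminescent beta-galactosidase reporter signal from transgenic T. cruzi replicating inside host cells; inhibitors lower the luminescence signal.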 Type of assay: functional, cell-based.
Another assay concerns HeLa. In words: HeLa cell cytotoxicity, dose response, cytotoxicity control, ATP luminescence, cherry-pick samples (AID 687004). Type of assay: functional, cell-based. The conditions noted are these: Homo sapiens.
Assay [4] in a line: CEM21 lymphoblast cell cytotoxicity, dose response, cytotoxicity control for viral fusion inhibitor project, CellTiter-Glo luminescence, cherry-picked (AID 652042).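 Further: potency for signal decrease meaning cytotoxicity.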 Type of assay: functional, cell-based. For orientation: In ATP-based viability assays light output follows the ATP content of the culture.
Assay [5] is described as follows: LGR2 antagonists, dose response, cell-based, HEK293, CRE-luciferase reporter, cherry pick, set 2 (AID 743343).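 Further: transfected cells were stimulated with diluted bursicon conditioned medium after compound addition.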 Type of assay: functional. (Reporter assays use an easily measured gene product as a stand-in for the process of interest.)
Assay [6] can be described thus: MC4R antagonists, dose response, counter-screen for LGR2 antagonist project, cell-based, plate reader, cherry pick (AID 743444).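 Further: transfected HEK 293 cells stimulated with alpha-MSH peptide; potency of inhibitors of the alpha-MSH evoked signal.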 Type of assay: functional. On the technique in general: A counterscreen serves to expose hits that act by an unwanted route or on another target.
The target of another assay is Paired box protein Pax-8 (Homo sapiens, UniProt Q06710). In words: inhibitors of PAX8-driven TPO luciferase reporter, dose response, RMG-I cells, cherry-pick (AID 687027).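 Further: luciferase reporter driven by Pax8 target thyroperoxidase promoter measured by SteadyGlo luminescence.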 Type of assay: functional, cell-based.
Sequence of Paired box protein Pax-8 (Q06710 whole entry): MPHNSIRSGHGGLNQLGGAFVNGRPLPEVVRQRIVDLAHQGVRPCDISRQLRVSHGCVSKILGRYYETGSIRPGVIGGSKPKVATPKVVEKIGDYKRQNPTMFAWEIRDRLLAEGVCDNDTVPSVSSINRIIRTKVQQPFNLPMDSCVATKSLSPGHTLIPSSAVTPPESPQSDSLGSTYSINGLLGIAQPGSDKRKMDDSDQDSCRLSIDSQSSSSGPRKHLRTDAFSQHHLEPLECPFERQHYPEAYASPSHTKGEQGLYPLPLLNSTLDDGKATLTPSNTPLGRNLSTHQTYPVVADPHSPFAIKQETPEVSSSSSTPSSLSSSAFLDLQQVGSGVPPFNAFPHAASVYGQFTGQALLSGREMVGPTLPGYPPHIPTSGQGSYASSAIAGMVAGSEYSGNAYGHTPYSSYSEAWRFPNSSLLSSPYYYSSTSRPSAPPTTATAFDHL
Assay [7] can be described thus: HepG2 cell cytotoxicity, dose response, cytotoxicity control, plate reader, cherry-pick, antagonist series (AID 743416). Type of assay: functional, cell-based.
Assay [8] in a line: inhibitors of clade B AD8 Env fusion, dose response, cell-based, cherry-pick (AID 652062).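 Further: luciferase signal from cell-cell fusion driven by HIV-1 clade B AD8 Env; potency is for inhibitors of fusion seen as a drop in luminescence.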 Type of assay: functional.
A short description of assay [9]: Shn3 3'UTR reporter inhibitors, dose response, cell-based, Clone20 osteoblasts, firefly luciferase, cherry-picked (AID 624132).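 Further: firefly luciferase luminescence from reporter carrying the Shn3 3'UTR in osteoblasts.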 Type of assay: functional.
The nature of assay [10]: HepG2 cell cytotoxicity, dose response, cytotoxicity control for Shn3 inhibitor project, CellTiter-Glo, cherry-picked (AID 624134). Type of assay: functional, cell-based.
A short description of assay [11]: A549 cell cytotoxicity, dose response, cytotoxicity control, plate reader, cherry-pick, antagonist series (AID 743412). Type of assay: functional, cell-based.
The nature of assay [12]: ZM109 Env clade C HIV-1 fusion inhibitors, dose response, HeLa effector, CEM target cells, luciferase, cherry-pick (AID 652058). Type of assay: functional, cell-based.
A short description of assay [13]: off-target signal loss in HeLa-CEM21 co-culture – HeLa F-luc CTL cells, cherry-picked, counter-screen for HIV-1 Env fusion inhibitor project, dose response (AID 652040).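 Further: potency for signal decrease marking cytotoxic or nonspecific inhibition.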 Type of assay: functional, cell-based.
A short description of assay [14]: inhibitors of HIV Env-driven cell fusion, dose response, cherry-pick (AID 652057). Type of assay: functional, cell-based.
The target in assay [15] is SWI/SNF-related matrix-associated actin-dependent regulator of chromatin subfamily A member 2 (Homo sapiens, UniProt P51531). In words: Luminescence-based cell-based high throughput dose response assay to identify activators of the function of SWI/SNF related, matrix associated, actin dependent regulator of chromatin, subfamily a, member 2 (SMARCA2, BRM). Type of assay: functional.
Sequence of SWI/SNF-related matrix-associated actin-dependent regulator of chromatin subfamily A member 2 (P51531 whole entry): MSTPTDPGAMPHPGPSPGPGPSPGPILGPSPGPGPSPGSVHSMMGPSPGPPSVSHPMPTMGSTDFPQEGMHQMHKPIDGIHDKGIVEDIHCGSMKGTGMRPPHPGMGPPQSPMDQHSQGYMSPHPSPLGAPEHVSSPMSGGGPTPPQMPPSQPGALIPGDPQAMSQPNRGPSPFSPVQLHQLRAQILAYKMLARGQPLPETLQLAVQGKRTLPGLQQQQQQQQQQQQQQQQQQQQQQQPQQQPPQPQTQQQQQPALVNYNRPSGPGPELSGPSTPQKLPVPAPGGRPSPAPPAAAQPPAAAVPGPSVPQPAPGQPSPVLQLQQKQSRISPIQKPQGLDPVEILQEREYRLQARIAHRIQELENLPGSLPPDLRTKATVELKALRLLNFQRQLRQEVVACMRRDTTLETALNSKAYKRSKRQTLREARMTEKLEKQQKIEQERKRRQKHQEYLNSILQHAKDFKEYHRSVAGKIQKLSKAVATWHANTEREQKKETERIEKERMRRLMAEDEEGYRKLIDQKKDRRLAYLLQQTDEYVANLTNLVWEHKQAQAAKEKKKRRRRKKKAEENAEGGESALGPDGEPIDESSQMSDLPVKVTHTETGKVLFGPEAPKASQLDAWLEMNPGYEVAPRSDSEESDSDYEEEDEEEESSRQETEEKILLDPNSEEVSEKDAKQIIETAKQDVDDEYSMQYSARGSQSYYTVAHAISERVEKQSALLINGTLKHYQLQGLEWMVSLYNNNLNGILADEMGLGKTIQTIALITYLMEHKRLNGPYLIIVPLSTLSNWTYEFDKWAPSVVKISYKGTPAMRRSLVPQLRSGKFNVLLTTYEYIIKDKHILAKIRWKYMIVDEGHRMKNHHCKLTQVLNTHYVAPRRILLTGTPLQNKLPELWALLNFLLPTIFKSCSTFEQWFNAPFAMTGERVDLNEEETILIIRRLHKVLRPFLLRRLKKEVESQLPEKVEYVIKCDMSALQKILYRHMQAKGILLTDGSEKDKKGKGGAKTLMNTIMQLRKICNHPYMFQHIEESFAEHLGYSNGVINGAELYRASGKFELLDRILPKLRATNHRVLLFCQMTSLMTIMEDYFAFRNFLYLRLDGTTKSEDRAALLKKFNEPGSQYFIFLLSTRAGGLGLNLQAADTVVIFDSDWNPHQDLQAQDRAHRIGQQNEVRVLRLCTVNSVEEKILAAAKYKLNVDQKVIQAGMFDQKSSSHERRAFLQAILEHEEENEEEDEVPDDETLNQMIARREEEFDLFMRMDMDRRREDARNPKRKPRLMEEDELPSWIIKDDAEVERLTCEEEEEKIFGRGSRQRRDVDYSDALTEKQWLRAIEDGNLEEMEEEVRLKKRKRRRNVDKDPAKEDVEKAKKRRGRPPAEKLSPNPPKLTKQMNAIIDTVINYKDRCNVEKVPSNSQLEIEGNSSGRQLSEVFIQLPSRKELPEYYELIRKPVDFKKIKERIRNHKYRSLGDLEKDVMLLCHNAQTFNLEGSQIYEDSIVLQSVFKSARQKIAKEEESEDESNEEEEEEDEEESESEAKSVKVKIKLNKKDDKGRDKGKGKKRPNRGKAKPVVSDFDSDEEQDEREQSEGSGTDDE

In the next assay the test system is H4. In words: Luminescence Cell-Based Dose Response HTS to Identify Activators of 5'UTR Stem-Loop Driven Prion Protein mRNA Translation in H4 Neuroglioblastoma Cells. [Related pubchem assays: 1829 (Project Summary), 1814 (Primary HTS)]. Type of assay: functional. Conditions: Homo sapiens.
Assay [16] is described as follows: Luminescence Cell-Based Dose Response HTS to Identify Activators of Luciferase Translation or Activity in H4 […] Cells. [Related pubchem assays: 1829 (Project Summary), 1814 (Primary HTS)]. Type of assay: functional.
The nature of assay [17]: Luminescence Cell-Based Dose Confirmation HTS to Identify Activators of 5'UTR Stem-Loop Driven Alpha-Synuclein mRNA Translation in H4 Neuroglioblastoma Cells. [Related pubchem assays: 1829 (Project Summary), 1814 (Primary HTS)]. Type of assay: functional.
Assay [18] is described as follows: Counterscreen for activators of the function of SWI/SNF related, matrix associated, actin dependent regulator of chromatin, subfamily a, member 2 (SMARCA2, BRM): Luminescence-based cell-based high throughput dose response assay to identify non-selective compounds using the VP16 reporter assay. Type of assay: functional.
Assay [19] can be described thus: HEK293T cytotoxicity, dose response, cytotoxicity control for miR-122 modulator project, cell-based, inhibitor set, cherry-pick, set 2 (AID 720697). Type of assay: functional.
Assay [20] is described as follows: HEK293T cytotoxicity, dose response, cytotoxicity control for miR-122 modulator project, cell-based, activator set, cherry-pick (AID 720690).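 Further: HEK293T human cells scored for general mammalian cytotoxicity.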 Type of assay: functional.
Assay [21] can be described thus: miR-122 activators in hepatoma reporter cells, dose response, cell-based, Huh7 psiCHECK-miR122, Renilla luciferase, cherry-picked (AID 651956).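 Further: huh7 hepatoma cells stably carrying a psiCHECK-2 miR-122 sensor plasmid; renilla luciferase signal reporting endogenous miR-122 activity after 48 h compound exposure.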 Type of assay: functional.
The target of assay [22] is T1, SUMO-activating enzyme (Homo sapiens, UniProt Q9UBT2). In words: SUMOylation inhibitor hit validation, confirmation, SUMOylation inhibitor project, biochemical, AlphaScreen (AID 2018). Type of assay: functional.
T1 sequence (Q9UBE0 whole entry): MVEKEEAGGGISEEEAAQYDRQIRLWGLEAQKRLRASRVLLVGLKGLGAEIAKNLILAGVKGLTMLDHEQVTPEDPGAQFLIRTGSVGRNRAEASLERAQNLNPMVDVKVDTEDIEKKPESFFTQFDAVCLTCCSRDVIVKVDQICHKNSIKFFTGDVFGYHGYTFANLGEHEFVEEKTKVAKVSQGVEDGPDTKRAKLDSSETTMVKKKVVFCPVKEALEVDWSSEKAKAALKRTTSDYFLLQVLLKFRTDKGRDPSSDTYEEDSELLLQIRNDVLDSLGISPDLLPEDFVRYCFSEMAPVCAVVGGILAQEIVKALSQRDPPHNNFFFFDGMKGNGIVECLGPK
T1 sequence (Q9UBT2 whole entry): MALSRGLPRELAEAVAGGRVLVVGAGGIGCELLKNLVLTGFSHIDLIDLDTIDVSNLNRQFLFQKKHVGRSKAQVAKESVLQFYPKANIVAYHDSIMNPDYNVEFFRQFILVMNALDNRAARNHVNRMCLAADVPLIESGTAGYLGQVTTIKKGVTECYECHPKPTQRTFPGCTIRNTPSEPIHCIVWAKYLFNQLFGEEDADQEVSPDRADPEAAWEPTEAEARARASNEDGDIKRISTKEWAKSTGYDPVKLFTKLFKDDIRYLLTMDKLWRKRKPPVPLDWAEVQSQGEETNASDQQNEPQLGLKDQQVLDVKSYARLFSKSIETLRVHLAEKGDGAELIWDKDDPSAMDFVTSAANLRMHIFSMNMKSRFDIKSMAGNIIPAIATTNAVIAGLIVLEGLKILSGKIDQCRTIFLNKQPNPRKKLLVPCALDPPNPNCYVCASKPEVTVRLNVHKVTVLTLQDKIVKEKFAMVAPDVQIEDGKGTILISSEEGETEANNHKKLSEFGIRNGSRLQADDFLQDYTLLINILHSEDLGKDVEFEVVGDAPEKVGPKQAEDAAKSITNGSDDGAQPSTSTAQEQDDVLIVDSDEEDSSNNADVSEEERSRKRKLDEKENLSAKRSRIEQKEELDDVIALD
Another assay deals with Albumin (Bos taurus, UniProt P02769). In words: Counterscreen for inhibitors of T-cell receptor (TCR)-CD3 interaction: Fluorescence-based biochemical high throughput dose response assay to identify inhibitors of T-cell receptor (TCR)-CD3 interaction using a TAMRA-labeled BSA probe. Type of assay: functional.
Sequence of Albumin (P02769 whole entry): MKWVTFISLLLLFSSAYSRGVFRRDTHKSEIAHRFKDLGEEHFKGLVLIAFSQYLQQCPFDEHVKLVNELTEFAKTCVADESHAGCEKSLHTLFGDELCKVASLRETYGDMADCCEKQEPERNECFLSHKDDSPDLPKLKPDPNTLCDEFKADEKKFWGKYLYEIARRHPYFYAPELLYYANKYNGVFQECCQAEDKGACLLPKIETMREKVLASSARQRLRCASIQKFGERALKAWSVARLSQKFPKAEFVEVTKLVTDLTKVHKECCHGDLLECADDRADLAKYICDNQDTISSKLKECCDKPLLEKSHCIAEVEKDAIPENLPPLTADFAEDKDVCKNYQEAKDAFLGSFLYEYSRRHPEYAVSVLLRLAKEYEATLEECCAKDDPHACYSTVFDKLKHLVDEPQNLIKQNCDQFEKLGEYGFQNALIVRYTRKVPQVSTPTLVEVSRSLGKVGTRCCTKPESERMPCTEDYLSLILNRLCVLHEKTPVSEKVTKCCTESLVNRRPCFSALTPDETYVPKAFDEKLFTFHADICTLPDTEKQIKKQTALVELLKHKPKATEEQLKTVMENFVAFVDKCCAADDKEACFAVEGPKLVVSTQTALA
For assay [23], the target named is T1, SUMO-activating enzyme. In words: inhibitors of in vitro SUMOylation cascade, primary screen, biochemical, HTRF, uHTS (AID 2006). Type of assay: protein-complex assay.
Assay [24] has as its target T2, Sentrin-specific protease 8 (Homo sapiens, UniProt Q96LD8).
T2 sequence (Q96LD8 whole entry): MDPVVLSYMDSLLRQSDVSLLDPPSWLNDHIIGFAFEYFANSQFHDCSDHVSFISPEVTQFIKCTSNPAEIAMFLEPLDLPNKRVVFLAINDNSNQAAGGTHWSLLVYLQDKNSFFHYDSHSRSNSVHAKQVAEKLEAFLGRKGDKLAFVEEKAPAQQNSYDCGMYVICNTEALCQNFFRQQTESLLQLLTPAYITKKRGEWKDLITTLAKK
Type of assay: functional.

Another assay addresses T3, Caspase-3 (Homo sapiens, UniProt P42574).
T3 sequence (P42574 whole entry): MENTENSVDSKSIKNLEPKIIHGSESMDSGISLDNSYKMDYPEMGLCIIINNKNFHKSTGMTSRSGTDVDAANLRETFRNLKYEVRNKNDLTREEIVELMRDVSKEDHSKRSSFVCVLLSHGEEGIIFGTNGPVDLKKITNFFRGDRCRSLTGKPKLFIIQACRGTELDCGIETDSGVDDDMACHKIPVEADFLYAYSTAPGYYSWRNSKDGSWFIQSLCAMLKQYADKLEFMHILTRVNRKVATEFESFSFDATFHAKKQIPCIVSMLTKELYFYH
In words: Dose-response confirmation of uHTS inhibitor hits of Sentrin-Specific Protease 8 in a Caspase-3 Fluorescence assay. Type of assay: functional.

Assay [25] deals with T2, Sentrin-specific protease 8. Type of assay: functional. The source holds these as a separate data set.
Another assay deals with Steroidogenic factor 1 (Homo sapiens, UniProt Q13285). In words: Counterscreen for inverse agonists of the liver receptor homolog-1 (LRH-1; NR5A2): Luminescence-based cell-based high throughput dose response assay to identify inverse agonists of the Steroidogenic Factor 1 Nuclear Receptor (SF1; NR5A1). Type of assay: functional.
Sequence of Steroidogenic factor 1 (Q13285 whole entry): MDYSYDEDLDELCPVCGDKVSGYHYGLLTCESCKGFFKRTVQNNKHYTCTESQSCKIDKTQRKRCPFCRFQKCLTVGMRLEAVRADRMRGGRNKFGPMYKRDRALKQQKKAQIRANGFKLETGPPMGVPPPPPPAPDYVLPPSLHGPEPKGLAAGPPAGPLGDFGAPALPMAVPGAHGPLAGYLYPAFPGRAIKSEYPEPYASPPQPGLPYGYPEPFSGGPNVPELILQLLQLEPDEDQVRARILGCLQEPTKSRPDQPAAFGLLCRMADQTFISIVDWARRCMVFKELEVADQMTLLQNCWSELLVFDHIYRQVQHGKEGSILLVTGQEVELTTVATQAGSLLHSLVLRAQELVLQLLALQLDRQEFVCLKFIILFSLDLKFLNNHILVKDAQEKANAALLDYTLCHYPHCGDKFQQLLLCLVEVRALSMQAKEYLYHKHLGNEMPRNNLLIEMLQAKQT
The target in assay [26] is Nuclear receptor subfamily 5 group A member 2 (Homo sapiens, UniProt O00482). Type of assay: functional, cell-based.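 Further: HEK293T cells transfected with LRH-1 and a StAR promoter luciferase reporter; potency for inhibitors that lower LRH-1 driven reporter light.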
Sequence of Nuclear receptor subfamily 5 group A member 2 (O00482 whole entry): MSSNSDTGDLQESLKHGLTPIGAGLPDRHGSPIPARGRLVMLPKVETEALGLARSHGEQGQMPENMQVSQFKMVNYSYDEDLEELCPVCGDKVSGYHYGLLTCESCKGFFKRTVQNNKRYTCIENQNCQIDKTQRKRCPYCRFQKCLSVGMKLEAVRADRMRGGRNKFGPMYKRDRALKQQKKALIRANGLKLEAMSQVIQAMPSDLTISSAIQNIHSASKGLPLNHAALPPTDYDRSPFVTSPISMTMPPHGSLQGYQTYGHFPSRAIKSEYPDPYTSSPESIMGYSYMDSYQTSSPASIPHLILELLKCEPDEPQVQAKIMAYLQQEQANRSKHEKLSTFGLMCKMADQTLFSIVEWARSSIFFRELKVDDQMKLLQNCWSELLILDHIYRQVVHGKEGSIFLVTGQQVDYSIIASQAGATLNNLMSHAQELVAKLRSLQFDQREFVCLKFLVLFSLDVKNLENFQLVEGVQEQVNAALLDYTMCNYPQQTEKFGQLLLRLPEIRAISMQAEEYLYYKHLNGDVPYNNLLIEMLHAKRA
Assay [27] can be described thus: StAR promoter reporter inhibition counter-screen, dose response, counter-screen for LRH-1 inverse agonist project, cell-based, luminescence, luciferase reporter (AID 651969). Type of assay: functional.
A short description of assay [28]: HepG2 cell cytotoxicity, dose response, cytotoxicity control, ATP luminescence, cherry-pick, activator set 2 (AID 1053143). Type of assay: functional, cell-based.
Assay [29] has as its target T4, Sentrin-specific protease 1 (Homo sapiens, UniProt Q9P0U3).
T4 sequence (Q9P0U3 whole entry): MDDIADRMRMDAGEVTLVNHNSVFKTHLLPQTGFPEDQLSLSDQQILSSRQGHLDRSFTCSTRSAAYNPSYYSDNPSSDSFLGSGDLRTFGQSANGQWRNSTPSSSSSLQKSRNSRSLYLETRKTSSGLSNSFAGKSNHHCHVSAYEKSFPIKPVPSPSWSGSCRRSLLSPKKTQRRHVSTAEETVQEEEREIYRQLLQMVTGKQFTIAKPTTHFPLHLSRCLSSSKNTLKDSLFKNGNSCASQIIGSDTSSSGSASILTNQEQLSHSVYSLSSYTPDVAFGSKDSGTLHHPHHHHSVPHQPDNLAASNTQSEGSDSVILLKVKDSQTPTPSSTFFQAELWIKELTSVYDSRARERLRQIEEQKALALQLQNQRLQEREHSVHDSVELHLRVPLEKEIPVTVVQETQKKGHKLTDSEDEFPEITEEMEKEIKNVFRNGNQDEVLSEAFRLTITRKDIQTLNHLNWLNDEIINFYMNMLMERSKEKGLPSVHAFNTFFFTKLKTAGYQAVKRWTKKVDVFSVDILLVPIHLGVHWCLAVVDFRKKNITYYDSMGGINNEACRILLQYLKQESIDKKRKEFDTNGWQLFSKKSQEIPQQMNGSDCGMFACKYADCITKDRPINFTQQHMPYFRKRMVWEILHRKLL
In words: potency of human SENP1 inhibitors, dose response, biochemical, kinetic FRET (AID 651697). Type of assay: functional. Conditions: read-out: IC50_Mean.

The target in assay [30] is T4, Sentrin-specific protease 1. In words: Dose response confirmation of small molecule inhibitors of the catalytic domain of the SUMO protease, SENP1 in a FRET assay. Type of assay: functional. The conditions noted are these: read-out: IC50_Mean.

Sequence of Fructose-bisphosphate aldolase (P9WQA3 whole entry): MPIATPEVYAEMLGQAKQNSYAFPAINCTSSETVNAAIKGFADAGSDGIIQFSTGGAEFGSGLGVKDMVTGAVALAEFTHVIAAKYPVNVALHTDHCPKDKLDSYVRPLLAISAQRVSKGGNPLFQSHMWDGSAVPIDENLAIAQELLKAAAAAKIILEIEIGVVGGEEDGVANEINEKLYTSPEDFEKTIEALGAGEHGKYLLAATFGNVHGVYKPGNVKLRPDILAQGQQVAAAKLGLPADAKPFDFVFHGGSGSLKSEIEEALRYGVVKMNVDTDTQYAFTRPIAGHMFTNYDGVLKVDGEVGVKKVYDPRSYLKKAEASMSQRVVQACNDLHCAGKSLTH

On to `Cc1ccc(-c2nc3ncccc3o2)cc1NC(=O)C(C)C`, for which the IC50 in [1] was 1.5 µM (active).
For the molecule `CCOc1ccc(C(=O)NC(=S)Nc2ccccc2N2CCC(C)CC2)cc1[N+](=O)[O-]`, the concentration giving a half-maximal response (EC50) is > 60 µM (not active) in [2] and 1.32 µM (active) in [3]. The AC50 in the assay with HeLa was > 52 µM (inactive).
With `O=C(Nc1cccc(-c2ccc(N3CCCCC3)nn2)c1)C(F)(F)F`, the concentration at half-maximal activity (AC50) in assay [4] is 34.1 µM (active); in assay [5], 2.61 µM (active); in assay [6], 1.41 µM (active); at Paired box protein Pax-8, 3.04 µM (active); in [7], 43.6 µM (active); in assay [8], 6.31 µM (active). Further, the AC50 in assay [9] is 9.07 µM (active); in [10], 33.1 µM (active); in assay [11] it was 30.2 µM (active); in [12] it was 34.1 µM (active); in [13], 9.6 µM (active); in assay [14], 3.47 µM (active).
In the case of `CC(C)c1ccc(/C=N/NC(=O)c2c(Cl)cnn2C)cc1`, the EC50 is > 91.2 µM (inactive) in assay [15]; 27.5 µM (active) in the assay with H4; 0.251 µM (active) in assay [16]; 9.9 µM (active) in [17]; > 91.2 µM (inactive) in assay [18].
Consider `CC(=O)Nc1ccc2c(c1)C(=O)N(C)[C@@H]1CC[C@H](CC(=O)NC3CCCCC3)O[C@H]1CO2`, for which the concentration at half-maximal activity (AC50) in assay [19] was 0.457 µM (active).
In the case of `C[C@@H]1CN([C@@H](C)CO)C(=O)c2cc(NC(=O)Nc3cccc4ccccc34)ccc2O[C@@H](C)CCCCO[C@@H]1CN(C)CC1CCCCC1`, the half-maximal activity concentration (AC50) in [20] was 30.5 µM (active); in assay [19], 6.05 µM (active); in assay [21], 11.6 µM (active).
As to `Cc1c(NC(=S)N/N=C/c2cc([N+](=O)[O-])ccc2O)c(=O)n(-c2ccccc2)n1C`, the IC50 was 1.64 µM (active) on SUMO-activating enzyme [22], > 94.1 µM (inactive) at Albumin and 11.4 µM (active) on SUMO-activating enzyme [23].
Turning to `O=C1CC(N2CCOCC2)=NN1c1ccc([N+](=O)[O-])cc1`, the IC50 is 11.7 µM (active) in assay [24], 100 µM (inactive) on Caspase-3 and 24.6 µM (active) in assay [25].
Regarding `Cc1c(NC(=S)NC(=O)c2ccc(Cl)cc2)c(=O)n(-c2ccccc2)n1C`, the values for the IC50 (at Steroidogenic factor 1; in [26]; in [27]) were 35.9 µM (inactive), 12 µM (inactive) and 35.9 µM (inactive), respectively.
With `O=C(NCCOc1ccccc1F)C1CC(=O)N(Cc2ccccc2)C1` (configuration not stated), in assay [28], the AC50 is > 52 µM (inactive).
Regarding `Cc1ccc2cc3c(N)c(C(=O)N4CCOCC4)sc3nc2c1`, the figures for the IC50 in assay [29] and in assay [30] were 35.9 µM (inactive) and 30.6 µM (inactive), respectively.

For orientation: EC50 means the concentration giving half of the maximal effect. The term AC50 denotes the concentration giving half of the maximal activity seen.
